This passage reports IC50 results from PubChem BioAssay AID1671294.

The target in the test is Homeodomain-interacting protein kinase 3 (Homo sapiens) (UniProt Q9H422). Briefly: inhibition of human HIPK3 (YAK1) activity – biochemical, Z'-LYTE, FRET, protease-coupled, direct format, dose response (AID 1671294). As to conditions: recombinant HIPK3.
Sequence of Homeodomain-interacting protein kinase 3 (Homo sapiens) (Q9H422 whole entry, looked up): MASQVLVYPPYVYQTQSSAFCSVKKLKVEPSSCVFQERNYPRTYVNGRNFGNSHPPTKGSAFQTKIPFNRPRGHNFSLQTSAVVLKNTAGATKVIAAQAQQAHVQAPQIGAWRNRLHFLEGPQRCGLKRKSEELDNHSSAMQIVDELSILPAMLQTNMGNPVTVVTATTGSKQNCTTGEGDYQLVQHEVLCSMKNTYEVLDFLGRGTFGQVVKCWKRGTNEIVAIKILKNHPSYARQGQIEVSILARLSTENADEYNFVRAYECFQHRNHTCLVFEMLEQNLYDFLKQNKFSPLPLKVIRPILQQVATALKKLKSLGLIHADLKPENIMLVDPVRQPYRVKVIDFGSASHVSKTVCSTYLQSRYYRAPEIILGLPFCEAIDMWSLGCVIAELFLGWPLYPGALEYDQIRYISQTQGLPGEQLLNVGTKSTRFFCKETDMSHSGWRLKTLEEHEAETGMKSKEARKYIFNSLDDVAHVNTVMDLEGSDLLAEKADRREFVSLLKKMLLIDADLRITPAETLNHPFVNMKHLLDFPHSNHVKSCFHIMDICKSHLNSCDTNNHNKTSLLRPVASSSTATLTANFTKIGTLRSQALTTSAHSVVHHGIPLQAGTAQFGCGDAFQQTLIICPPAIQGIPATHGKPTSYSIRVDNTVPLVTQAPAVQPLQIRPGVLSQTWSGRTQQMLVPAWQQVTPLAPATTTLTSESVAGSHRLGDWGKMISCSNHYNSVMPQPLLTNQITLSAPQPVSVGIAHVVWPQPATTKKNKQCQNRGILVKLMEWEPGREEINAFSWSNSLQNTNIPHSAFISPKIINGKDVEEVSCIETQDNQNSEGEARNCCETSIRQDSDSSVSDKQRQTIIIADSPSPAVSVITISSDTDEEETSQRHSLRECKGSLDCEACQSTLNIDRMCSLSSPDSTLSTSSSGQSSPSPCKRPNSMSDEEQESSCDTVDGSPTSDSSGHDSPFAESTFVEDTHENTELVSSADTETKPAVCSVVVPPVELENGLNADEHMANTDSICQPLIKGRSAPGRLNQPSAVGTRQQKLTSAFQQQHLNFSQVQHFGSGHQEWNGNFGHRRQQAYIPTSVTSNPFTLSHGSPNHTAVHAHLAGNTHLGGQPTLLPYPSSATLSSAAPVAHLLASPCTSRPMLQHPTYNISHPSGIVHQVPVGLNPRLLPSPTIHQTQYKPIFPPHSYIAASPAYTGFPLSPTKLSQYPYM

What is called IC50 is the concentration at which inhibition is half-maximal. As to `Brc1c(Br)c(Br)c2n[nH]nc2c1Br`, the IC50 was 5.1 µM.
